Measurements as given in PubChem BioAssay AID248 (DTP/NCI, 2004).
Where “and” joins values, the source holds several entries; their conditions need not be identical. Identical values can stand only once. Inconclusive results and toxic doses are left out. Rule as the data show it: active = T/C of 150% or more; inactive = T/C below 125%.

Tested on: L1210 leukemia ip in BDF1 mice, survival T/C
Assay: NCI In Vivo Anticancer Drug Screen. Data for tumor model L1210 Leukemia (intraperitoneal) in B6D2F1 (BDF1) mice
Conditions: endpoint: mean survival time, higher = longer survival
Summary of the method: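 Each compound was tested against a transplantable tumor grown in mice. The endpoint was survival, with treated animals benchmarked against vehicle controls as a simple ratio.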

[1] = dose: 100.0 mg/kg/injection, schedule: Q01DX009 (ip), vehicle: Klucel (hydroxypropylcellulose) (HPC)
[2] = dose: 200.0 mg/kg/injection, schedule: Q01DX009 (ip), vehicle: Klucel (hydroxypropylcellulose) (HPC)
[3] = dose: 400.0 mg/kg/injection, schedule: Q01DX009 (ip), vehicle: Klucel (hydroxypropylcellulose) (HPC)
[4] = dose: 100.0 mg/kg/injection, schedule: Q01DX001 (ip), vehicle: saline with Tween-80
[5] = dose: 100.0 mg/kg/injection, schedule: Q04DX002 (ip), vehicle: Klucel (hydroxypropylcellulose) (HPC)
[6] = dose: 200.0 mg/kg/injection, schedule: Q04DX002 (ip), vehicle: Klucel (hydroxypropylcellulose) (HPC)
[7] = dose: 400.0 mg/kg/injection, schedule: Q04DX002 (ip), vehicle: Klucel (hydroxypropylcellulose) (HPC)
[8] = dose: 50.0 mg/kg/injection, schedule: Q01DX001 (ip), vehicle: saline
[9] = dose: 100.0 mg/kg/injection, schedule: Q01DX001 (ip), vehicle: saline
[10] = dose: 200.0 mg/kg/injection, schedule: Q01DX001 (ip), vehicle: saline
[11] = dose: 100.0 mg/kg/injection, schedule: Q01DX001 (ip), vehicle: other
[12] = dose: 200.0 mg/kg/injection, schedule: Q01DX001 (ip), vehicle: other
[13] = dose: 400.0 mg/kg/injection, schedule: Q01DX001 (ip), vehicle: other
[14] = dose: 50.0 mg/kg/injection, schedule: Q01DX009 (ip), vehicle: saline with Tween-80
[15] = dose: 100.0 mg/kg/injection, schedule: Q01DX009 (ip), vehicle: saline with Tween-80
[16] = dose: 200.0 mg/kg/injection, schedule: Q01DX009 (ip), vehicle: saline with Tween-80
[17] = dose: 400.0 mg/kg/injection, schedule: Q01DX009 (ip), vehicle: saline with Tween-80

Measured: T/C

CCCCCCCCCCCCCCCCCC(=O)N/N=C/c1ccc(OCC)c(OC)c1
inactive: [1] 86 % of control | [2] 91 % of control | [3] 88 % of control

Nc1ncnc2c1ncn2C1CCCCC1
inactive: dose: 17.5 mg/kg/injection, schedule: Q01DX Z (ip), vehicle: carboxymethylcellulose (CMC) 89 % of control | dose: 34.0 mg/kg/injection, schedule: Q01DX Z (ip), vehicle: carboxymethylcellulose (CMC) 98 % of control | dose: 34.0 mg/kg/injection, schedule: Q01DX Z (oral), vehicle: carboxymethylcellulose (CMC) 97 % of control | dose: 68.0 mg/kg/injection, schedule: Q01DX Z (ip), vehicle: carboxymethylcellulose (CMC) 102 % of control | dose: 68.0 mg/kg/injection, schedule: Q01DX Z (oral), vehicle: carboxymethylcellulose (CMC) 100 % of control | dose: 136.0 mg/kg/injection, schedule: Q01DX Z (oral), vehicle: carboxymethylcellulose (CMC) 102 % of control

CCCCNC(=O)Nc1ccc(Cl)cc1
inactive: dose: 25.0 mg/kg/injection, schedule: Q01DX001 (ip), vehicle: saline with Tween-80 100 % of control | dose: 50.0 mg/kg/injection, schedule: Q01DX001 (ip), vehicle: saline with Tween-80 88 % of control | [4] 88 % of control | [5] 96 % of control | [6] 100 % of control | [7] 104 % of control

Cc1ccc(N2C(=O)ON(c3ccccc3)C2c2ccccc2)cc1 (centres undefined)
inactive: [8] 100 % of control | [9] 102 % of control | [10] 106 % of control | dose: 400.0 mg/kg/injection, schedule: Q01DX001 (ip), vehicle: saline 108 % of control

NC(Cc1c[nH]c2ccc(F)cc12)C(=O)O (centres undefined)
inactive: [11] 95 % of control | dose: 100.0 mg/kg/injection, schedule: Q04DX003 (ip), vehicle: other 119 % of control | [12] 95 % of control | dose: 200.0 mg/kg/injection, schedule: Q04DX003 (ip), vehicle: other 102 % of control | [13] 89 % of control

CC1(C(=O)O)C2C3C=CC(C3)C21 (centres undefined)
inactive: [4] 97 % of control | dose: 200.0 mg/kg/injection, schedule: Q01DX001 (ip), vehicle: saline with Tween-80 93 % of control | dose: 400.0 mg/kg/injection, schedule: Q01DX001 (ip), vehicle: saline with Tween-80 92 % of control

CC#CC(C)(O)C(=O)OC (centres undefined)
inactive: [11] 105 % of control | [12] 98 % of control | [13] 94 % of control

Cc1ccc(NC(=O)NCCOc2ccc(Br)cc2)c([N+](=O)[O-])c1
inactive: [14] 98 % of control | [15] 95 % of control | dose: 100.0 mg/kg/injection, schedule: Q04DX003 (ip), vehicle: saline with Tween-80 92 % of control | [16] 95 % of control | dose: 200.0 mg/kg/injection, schedule: Q04DX003 (ip), vehicle: saline with Tween-80 91 % of control | dose: 400.0 mg/kg/injection, schedule: Q04DX003 (ip), vehicle: saline with Tween-80 100 % of control

COc1cccc(OC)c1OC(=O)Nc1cccc(SC)c1
inactive: [16] 91 % of control | [17] 95 % of control

O=C(/C=C/c1cccc(Cl)c1)c1ccc(Cl)cc1
inactive: dose: 25.0 mg/kg/injection, schedule: Q01DX009 (ip), vehicle: saline with Tween-80 95 % of control and 96 % of control | dose: 25.0 mg/kg/injection, schedule: Q04DX003 (ip), vehicle: carboxymethylcellulose (CMC) 95 % of control and 103 % of control | [14] 93 % of control and 95 % of control | dose: 50.0 mg/kg/injection, schedule: Q04DX003 (ip), vehicle: carboxymethylcellulose (CMC) 105 % of control and 89 % of control | dose: 100.0 mg/kg/injection, schedule: Q01DX001 (ip), vehicle: carboxymethylcellulose (CMC) 94 % of control | dose: 100.0 mg/kg/injection, schedule: Q01DX009 (ip), vehicle: carboxymethylcellulose (CMC) 86 % of control | [15] 92 % of control and 91 % of control | dose: 100.0 mg/kg/injection, schedule: Q04DX002 (ip), vehicle: carboxymethylcellulose (CMC) 92 % of control and 100 % of control | dose: 200.0 mg/kg/injection, schedule: Q01DX001 (ip), vehicle: carboxymethylcellulose (CMC) 92 % of control | dose: 200.0 mg/kg/injection, schedule: Q01DX009 (ip), vehicle: carboxymethylcellulose (CMC) 90 % of control | dose: 200.0 mg/kg/injection, schedule: Q04DX002 (ip), vehicle: carboxymethylcellulose (CMC) 100 % of control and 107 % of control | dose: 200.0 mg/kg/injection, schedule: Q04DX003 (ip), vehicle: carboxymethylcellulose (CMC) 96 % of control | dose: 400.0 mg/kg/injection, schedule: Q01DX001 (ip), vehicle: carboxymethylcellulose (CMC) 92 % of control | dose: 400.0 mg/kg/injection, schedule: Q04DX002 (ip), vehicle: carboxymethylcellulose (CMC) 100 % of control and 102 % of control | dose: 400.0 mg/kg/injection, schedule: Q04DX003 (ip), vehicle: carboxymethylcellulose (CMC) 91 % of control

CC(CN(C)C)C(O)(c1ccccc1)c1ccccc1 (centres undefined)
inactive: [8] 98 % of control | [9] 98 % of control | [10] 104 % of control

CC(=O)/C(C)=C/C(=O)O
inactive: dose: 25.0 mg/kg/injection, schedule: Q01DX009 (ip), vehicle: saline 95 % of control | dose: 25.0 mg/kg/injection, schedule: Q04DX003 (ip), vehicle: saline 97 % of control | dose: 50.0 mg/kg/injection, schedule: Q01DX009 (ip), vehicle: saline 97 % of control | dose: 50.0 mg/kg/injection, schedule: Q04DX003 (ip), vehicle: saline 97 % of control | dose: 100.0 mg/kg/injection, schedule: Q01DX009 (ip), vehicle: saline 105 % of control | dose: 100.0 mg/kg/injection, schedule: Q04DX003 (ip), vehicle: saline 97 % of control and 108 % of control

Cc1cnc(N)c([N+](=O)[O-])c1
inactive: dose: 100.0 mg/kg/injection, schedule: Q01DX005 (ip), vehicle: Klucel (hydroxypropylcellulose) (HPC) 94 % of control | [1] 97 % of control | [5] 96 % of control | dose: 200.0 mg/kg/injection, schedule: Q01DX005 (ip), vehicle: Klucel (hydroxypropylcellulose) (HPC) 94 % of control | [2] 97 % of control | [6] 100 % of control | dose: 400.0 mg/kg/injection, schedule: Q01DX005 (ip), vehicle: Klucel (hydroxypropylcellulose) (HPC) 94 % of control | [3] 91 % of control | [7] 93 % of control

CN/N=C/c1cc(=O)[nH]c(=O)[nH]1
inactive: [8] 101 % of control | [9] 104 % of control | [10] 95 % of control

CCCCCCCCC(O)CCCCCCCCC(=O)O (centres undefined)
inactive: [15] 101 % of control | [16] 97 % of control | [17] 86 % of control

O=C(NCCCCCCCCNC(=O)N1CC1)N1CC1
inactive: dose: 0.19 mg/kg/injection, schedule: Q01DX009 (ip), vehicle: carboxymethylcellulose (CMC) 101 % of control | dose: 0.29 mg/kg/injection, schedule: Q01DX001 (ip), vehicle: carboxymethylcellulose (CMC) 98 % of control | dose: 0.29 mg/kg/injection, schedule: Q01DX009 (ip), vehicle: carboxymethylcellulose (CMC) 113 % of control | dose: 0.44 mg/kg/injection, schedule: Q01DX001 (ip), vehicle: carboxymethylcellulose (CMC) 95 % of control | dose: 0.44 mg/kg/injection, schedule: Q01DX009 (ip), vehicle: carboxymethylcellulose (CMC) 111 % of control | dose: 0.66 mg/kg/injection, schedule: Q01DX001 (ip), vehicle: carboxymethylcellulose (CMC) 96 % of control | dose: 0.66 mg/kg/injection, schedule: Q01DX009 (ip), vehicle: carboxymethylcellulose (CMC) 108 % of control | dose: 1.0 mg/kg/injection, schedule: Q01DX001 (ip), vehicle: carboxymethylcellulose (CMC) 101 % of control | dose: 1.0 mg/kg/injection, schedule: Q01DX009 (ip), vehicle: carboxymethylcellulose (CMC) 119 % of control | dose: 1.5 mg/kg/injection, schedule: Q01DX009 (ip), vehicle: carboxymethylcellulose (CMC) 109 % of control | dose: 2.25 mg/kg/injection, schedule: Q01DX009 (ip), vehicle: carboxymethylcellulose (CMC) 112 % of control | dose: 6.2 mg/kg/injection, schedule: Q01DX001 (ip), vehicle: carboxymethylcellulose (CMC) 102 % of control
